By EC50 is commonly meant the concentration giving half of the maximal effect.

Numbered stars: 1 amine (or outer) side, 2 acyl side, 3 side chain; on linkers, the order of the positions; unused ones are H or OH. Square brackets hold non-standard residues; d marks the D form. Peptide text beside a SMILES is read from it. * marks the point of attachment. X2 = CON(C)C(=O)OCCCC[C@@H](C)[C@@H](O)[C@@H](C(=O)[*:2])N(C)[*:1]; X10 = C[C@H](CCOC(=O)NC1CC1)[C@@H](O)[C@@H](C(=O)[*:2])N(C)[*:1]; X5 = C[C@H](CCCCOC(=O)N(C)C)[C@@H](O)[C@@H](C(=O)[*:2])N(C)[*:1]; X9 = C[C@H](CCCCN=[N+]=[N-])[C@@H](O)[C@@H](C(=O)[*:2])N(C)[*:1]; X7 = CCOC(=O)NCCCC[C@@H](C)[C@@H](O)[C@@H](C(=O)[*:2])N(C)[*:1]; X8 = CCOC(=O)OCCCC[C@@H](C)[C@@H](O)[C@@H](C(=O)[*:2])N(C)[*:1]; X1 = COC(=O)NCCCC[C@@H](C)[C@@H](O)[C@@H](C(=O)[*:2])N(C)[*:1]; X4 = COC(=O)OCCCC[C@@H](C)[C@@H](O)[C@@H](C(=O)[*:2])N(C)[*:1]; X3 = CC(=O)NCCCC[C@@H](C)[C@@H](O)[C@@H](C(=O)[*:2])N(C)[*:1]; NMe(dihydroBmt) = CCCC[C@@H](C)[C@@H](O)[C@H](NC)C(=O)O; X6 = C[C@H](CCCCN)[C@@H](O)[C@@H](C(=O)[*:2])N(C)[*:1]; Butyl(4-morpholino) = C(CC*)CN1CCOCC1; NMeT = CN[C@H](C(=O)O)[C@@H](C)O; NMeL = CN[C@@H](CC(C)C)C(=O)O; NMeV = CN[C@H](C(=O)O)C(C)C; dNMeA = CN[C@H](C)C(=O)O; Abu = CC[C@H](N)C(=O)O A value given as a limit tells only on which side of the number the result lay.

The subject of this experiment is HCV 1a genotype replicon. Description: microbe, parasite or virus in culture. Conditions: Hepatitis C virus; HCV genotype 1a replicon, luciferase assay, 72 hours; read-out: EC50 (Ia) Genotype-1a Replicon EC50. Type of experiment: cell-based. On the technique in general: Replicon systems follow genome replication, usually without infectious particles.
Regarding `CC[C@@H]1NC(=O)[C@H]([C@H](O)[C@H](C)CCCCN)N(C)C(=O)[C@H](C(C)C)N(C)C(=O)[C@H](CC(C)C)N(C)C(=O)[C@H](CC(C)C)N(C)C(=O)[C@@H](C)NC(=O)[C@H](C)NC(=O)[C@H](CC(C)C)N(C)C(=O)[C@H](C(C)C)NC(=O)[C@H]([C@@H](C)OCCCCN2CCOCC2)N(C)C(=O)[C@@H](C)N(C)C1=O` [Example 69] (cyclo(A[dA][NMeL][NMeL][NMeV][X6][Abu][dNMeA][NMeT](Butyl(4-morpholino))V[NMeL])), the EC50 is 100 to 1000 nM.

As for `CC[C@@H]1NC(=O)[C@H]([C@H](O)[C@H](C)CCCCNC(C)=O)N(C)C(=O)[C@H](C(C)C)N(C)C(=O)[C@H](CC(C)C)N(C)C(=O)[C@H](CC(C)C)N(C)C(=O)[C@@H](C)NC(=O)[C@H](C)NC(=O)[C@H](CC(C)C)N(C)C(=O)[C@H](C(C)C)NC(=O)[C@H]([C@@H](C)OCCCCN2CCOCC2)N(C)C(=O)[C@@H](C)N(C)C1=O` [Example 70] (cyclo(A[dA][NMeL][NMeL][NMeV][X3][Abu][dNMeA][NMeT](Butyl(4-morpholino))V[NMeL])), the EC50 lay in the range of 10 to 100 nM.

Regarding `CC[C@@H]1NC(=O)[C@H]([C@H](O)[C@H](C)CCCCN=[N+]=[N-])N(C)C(=O)[C@H](C(C)C)N(C)C(=O)[C@H](CC(C)C)N(C)C(=O)[C@H](CC(C)C)N(C)C(=O)[C@@H](C)NC(=O)[C@H](C)NC(=O)[C@H](CC(C)C)N(C)C(=O)[C@H](C(C)C)NC(=O)[C@H]([C@@H](C)OCCCCN2CCOCC2)N(C)C(=O)[C@@H](C)N(C)C1=O` [Example 68] (cyclo(A[dA][NMeL][NMeL][NMeV][X9][Abu][dNMeA][NMeT](Butyl(4-morpholino))V[NMeL])), the EC50 is 10 to 100 nM.

Turning to `CC[C@@H]1NC(=O)[C@H]([C@H](O)[C@H](C)CCCCOC(=O)OC)N(C)C(=O)[C@H](C(C)C)N(C)C(=O)[C@H](CC(C)C)N(C)C(=O)[C@H](CC(C)C)N(C)C(=O)[C@@H](C)NC(=O)[C@H](C)NC(=O)[C@H](CC(C)C)N(C)C(=O)[C@H](C(C)C)NC(=O)[C@H]([C@@H](C)OCCCCN2CCOCC2)N(C)C(=O)[C@@H](C)N(C)C1=O` [Example 63] (cyclo(A[dA][NMeL][NMeL][NMeV][X4][Abu][dNMeA][NMeT](Butyl(4-morpholino))V[NMeL])), the EC50 lay within 10 to 100 nM.

Take `CCOC(=O)OCCCC[C@@H](C)[C@@H](O)[C@H]1C(=O)N[C@@H](CC)C(=O)N(C)[C@H](C)C(=O)N(C)[C@@H]([C@@H](C)OCCCCN2CCOCC2)C(=O)N[C@@H](C(C)C)C(=O)N(C)[C@@H](CC(C)C)C(=O)N[C@@H](C)C(=O)N[C@H](C)C(=O)N(C)[C@@H](CC(C)C)C(=O)N(C)[C@@H](CC(C)C)C(=O)N(C)[C@@H](C(C)C)C(=O)N1C` [Example 64] (cyclo(A[dA][NMeL][NMeL][NMeV][X8][Abu][dNMeA][NMeT](Butyl(4-morpholino))V[NMeL])): the EC50 fell in the range of 10 to 100 nM.

Turning to `CCOC(=O)NCCCC[C@@H](C)[C@@H](O)[C@H]1C(=O)N[C@@H](CC)C(=O)N(C)[C@H](C)C(=O)N(C)[C@@H]([C@@H](C)OCCCCN2CCOCC2)C(=O)N[C@@H](C(C)C)C(=O)N(C)[C@@H](CC(C)C)C(=O)N[C@@H](C)C(=O)N[C@H](C)C(=O)N(C)[C@@H](CC(C)C)C(=O)N(C)[C@@H](CC(C)C)C(=O)N(C)[C@@H](C(C)C)C(=O)N1C` [Example 72] (cyclo(A[dA][NMeL][NMeL][NMeV][X7][Abu][dNMeA][NMeT](Butyl(4-morpholino))V[NMeL])), the EC50 lay in the range of 10 to 100 nM.

As for `CC[C@@H]1NC(=O)[C@H]([C@H](O)[C@H](C)CCCCOC(=O)N(C)C)N(C)C(=O)[C@H](C(C)C)N(C)C(=O)[C@H](CC(C)C)N(C)C(=O)[C@H](CC(C)C)N(C)C(=O)[C@@H](C)NC(=O)[C@H](C)NC(=O)[C@H](CC(C)C)N(C)C(=O)[C@H](C(C)C)NC(=O)[C@H]([C@@H](C)OCCCCN2CCOCC2)N(C)C(=O)[C@@H](C)N(C)C1=O` [Example 65] (cyclo(A[dA][NMeL][NMeL][NMeV][X5][Abu][dNMeA][NMeT](Butyl(4-morpholino))V[NMeL])), the concentration giving a half-maximal response (EC50) was in the range of 10 to 100 nM.

On to `CC[C@@H]1NC(=O)[C@H]([C@H](O)[C@H](C)CCCCNC(=O)OC)N(C)C(=O)[C@H](C(C)C)N(C)C(=O)[C@H](CC(C)C)N(C)C(=O)[C@H](CC(C)C)N(C)C(=O)[C@@H](C)NC(=O)[C@H](C)NC(=O)[C@H](CC(C)C)N(C)C(=O)[C@H](C(C)C)NC(=O)[C@H]([C@@H](C)OCCCCN2CCOCC2)N(C)C(=O)[C@@H](C)N(C)C1=O` [Example 71] (cyclo(A[dA][NMeL][NMeL][NMeV][X1][Abu][dNMeA][NMeT](Butyl(4-morpholino))V[NMeL])), for which the EC50 was 10 to 100 nM.

As for `CC[C@@H]1NC(=O)[C@H]([C@H](O)[C@H](C)CCOC(=O)NC2CC2)N(C)C(=O)[C@H](C(C)C)N(C)C(=O)[C@H](CC(C)C)N(C)C(=O)[C@H](CC(C)C)N(C)C(=O)[C@@H](C)NC(=O)[C@H](C)NC(=O)[C@H](CC(C)C)N(C)C(=O)[C@H](C(C)C)NC(=O)[C@H]([C@@H](C)OCCCCN2CCOCC2)N(C)C(=O)[C@@H](C)N(C)C1=O` [Example 6] (cyclo(A[dA][NMeL][NMeL][NMeV][X10][Abu][dNMeA][NMeT](Butyl(4-morpholino))V[NMeL])), the EC50 was over 1000 nM.

For `CCCC[C@@H](C)[C@@H](O)[C@H]1C(=O)N[C@@H](CC)C(=O)N(C)[C@H](C)C(=O)N(C)[C@@H]([C@@H](C)OCCCCN2CCOCC2)C(=O)N[C@@H](C(C)C)C(=O)N(C)[C@@H](CC(C)C)C(=O)N[C@@H](C)C(=O)N[C@H](C)C(=O)N(C)[C@@H](CC(C)C)C(=O)N(C)[C@@H](CC(C)C)C(=O)N(C)[C@@H](C(C)C)C(=O)N1C` [Example 7] (cyclo(A[dA][NMeL][NMeL][NMeV][NMe(dihydroBmt)][Abu][dNMeA][NMeT](Butyl(4-morpholino))V[NMeL])), the EC50 lay in the range of 10 to 100 nM.

As to `CC[C@@H]1NC(=O)[C@H]([C@H](O)[C@H](C)CCCCOC(=O)N(C)OC)N(C)C(=O)[C@H](C(C)C)N(C)C(=O)[C@H](CC(C)C)N(C)C(=O)[C@H](CC(C)C)N(C)C(=O)[C@@H](C)NC(=O)[C@H](C)NC(=O)[C@H](CC(C)C)N(C)C(=O)[C@H](C(C)C)NC(=O)[C@H]([C@@H](C)OCCCCN2CCOCC2)N(C)C(=O)[C@@H](C)N(C)C1=O` [Example 66] (cyclo(A[dA][NMeL][NMeL][NMeV][X2][Abu][dNMeA][NMeT](Butyl(4-morpholino))V[NMeL])), the EC50 lay in the range of 10 to 100 nM.

The values are drawn from patent US9616099B2, “Cyclosporin analogues for preventing or treating hepatitis C infection” (Enanta Pharmaceuticals, Inc., priority 2013, dated 2017).
